Experimental data published in US11046647B2, “Activators of the unfolded protein response” (The Board of Trustees of the University of Illinois, priority 2018, dated 2021).

How the values were obtained:
[1] = test system: CaOV-3 ovarian cancer cells; assay: Automated Trypan Blue exclusion cell death assay, Caov-3; format: cell-based, human; conditions: 24 hours
Procedure: FIG. 33. 105, but not BHPI, kills therapy-resistant ovarian CaOV-3 ovarian cancer cells. (±)-105; Cell death assay: Automated Trypan Blue exclusion. (24 hours post (±)-105)
TRYPAN BLUE: For decades, viable cells have been measured by their ability to exclude the dye Trypan Blue. […] Dead cells, which have lost membrane integrity, take up the dye and are blue. Thus, the percentage of dead cells is the percentage of cells that are Trypan Blue positive out of the total cell population. Quantitative assessment of Trypan Blue uptake uses a cell counter from Fisher. Since the assay is instrument based, there is no observer bias in determining the percentage of Trypan Blue positive cells.
TRYPAN BLUE ASSAYS: Assays are performed on cells in 6 well plates: 300,000 cells are plated in each well of a 6-well plate in 3 ml of medium. After 24 hours, the DMSO vehicle or the indicated compound is added (in 1000th of the vol.) The cells incubated for an additional 24 hours, and then harvested in 0.25 ml of trypsin, followed after harvest by 0.75 ml of medium. The cells are spun down and resuspended in 100-200 μl of medium left that is over the cell pellet (resuspend cells by pipetting up and down a few times). Add 10 μl to 10 μl of trypan blue. Then 10 μl is inserted into the counting slide. […]

[2] = test system: MYS and MDG cells (MCF-7 with Y537S or D538G ERα) tumors; assay: MYS-luc / MDG-luc orthotopic tumors; format: in vivo, mouse; conditions: daily dosing
Excerpt: FIG. 41. […]
FIG. 43. SERK-F6-mediated eradication of MYS/MDG tumors is dependent on quantitative cell killing. a-b, MYS-luc. orthotopic tumors were established in NSG ovariectomized mice (no E2 pellet, ˜45 days to establish) and dosed daily as indicated (n=5-6), b, Treatment of MYS-luc, tumors were stopped after 21 daily doses of SERK-F6 and mice tumor burden was tracked via bioluminescence. […]

[3] = test system: intracellular ATP levels in TYS-Luc cells; assay: Intracellular ATP levels, TYS-Luc cells; format: cell-based, human; conditions: 1,000 nM
Procedure: TYS-Luc cells were maintained DMSO vehicle (Veh), 1,000 nM BHPI, 1,000 nM (−)-105 with and without 10,000 nM thapsigargin (THG) for the indicated times. ATP levels were determines using a kit and relative ATP levels were from a standard curve. […] (n=3±SEM).

[4] = test system: sp-XBP1 mRNA (unfolded protein response); assay: Induction of spliced XBP-1 mRNA (qRT-PCR), T47D-luciferase cells; format: cell-based, human; conditions: 100 nM
Procedure: ERα positive T47D-luciferase human breast cancer cells, were maintained for the indicated times in vehicle (Ctl, Control), 100 nM BHPI or 100 nM (−)-105. At the indicated times RNA was isolated and levels of sp-XBP1 mRNA quantitated by qRT-PCR. (n=3 ±SEM).

[5] = test system: parental T47D cells; assay: MTS growth assay, parental T47D cells; format: cell-based, human; conditions: 100 nM and 1 μM; 4 days
Procedure: ERα containing T47D human breast cancer cells able to survive in 1 μM BHPI were selected by clonal outgrowth. The effect of 100 nM and 1 μM BHPI and (−)-105 on growth of the (BHPI-sensitive) parental T47D cells and partially BHPI-resistant T47D clones 1,3,8, and 11 was evaluated. 4,000 cells/well were plated. Cell number was determined by MTS assay from a standard curve of absorbance versus cell number. […] Thus, in 4 days (−)-105 killed some, but not all, of the resistant cells.

[6] = test system: T47D cells; assay: 24-hour crystal violet assay; format: cell-based, human
Procedure: FIG. 36. Discovery of SERK-F6 (also known as, C(−)-105, (−)-105, (R)-105, (−)-1, or (R)-1), a compound that kills ERα-positive cancer cells, a, Chemical structures of BHPI and racemic compound 1 (i.e. (±)-1), and their cytotoxic activity on T47D breast cancer cells after 24-hour incubations with concentrations as indicated in nM. Cells were stained with annexin V-FITC and PI dyes prior to analysis via flow cytometry. […] Cells were incubated with SERK-F6 or positive control, Raptinal, for 24 hours and then stained with annexin V-FITC and PI dyes and analyzed via flow cytometry. Error bars represent S.E.M of 3 independent replicates. c, IC50 values of SERK-F6 after 24-hour incubation against a panel of cancer cell lines grouped by their reported ERα status. Cell viability was measured by Alamar blue fluorescence and set relative to a vehicle control and a quantitative dead control treated with Raptinal. Error bars represent S.E.M of 3 independent experiments. d, Crystal violet staining of T47D cells after 24-hour incubations with compounds and concentrations as indicated. Image is representative of 2 independent experiments. e,f, Long-term cell culture experiment with T47D, TDG, and TYS cells. Cells were incubated for 2 weeks with compounds (1 μM), followed by compound washout, and cells were cultured for 2 months. Cell number was determined by MTS.

Structure (SMILES) | killing of Caov-3 cells [1] | tumor response [2] | intracellular ATP levels [3] | UPR activation / induction of sp-XBP1 [4] | effect on growth / cell number [5] | cell killing [6]
O=C1Nc2c(C(F)(F)F)cccc2C1(c1ccc(O)cc1)c1ccc(OC(F)(F)F)cc1 (racemic) [(±)-105, 3-(4-hydroxyphenyl)-3-(4-(trifluoromethoxy)phenyl)-7-(trifluoromethyl)indolin-2-one] | kills |  |  |  |  | 
O=C1Nc2c(C(F)(F)F)cccc2C1(c1ccc(O)cc1)c1ccc(OC(F)(F)F)cc1 (single isomer, unassigned; (-)) [(−)-105, 3-(4-hydroxyphenyl)-3-(4-(trifluoromethoxy)phenyl)-7-(trifluoromethyl)indolin-2-one] |  | Dramatic tumor regressions were observed | reduces intracellular ATP levels | much stronger UPR hyper-activator and inducer of sp-XBP1 than BHPI | killed all the T47D cells | quantitatively kills
